These results are taken from PMC8872768, “Discovery of ultrafast myosin, its amino acid sequence, and structural features” (Proceedings of the National Academy of Sciences of the …, 2022).

In one test the target is T1, CbXI-3 MD (Chara braunii, UniProt A0A388L5N7).
T1 construct: gene CBR_g24025; motor domain only, no IQ motifs; baculovirus / insect cells
Put plainly: actin-activated Mg2+-ATPase, phosphate release. The class given is biochemical. The note with it: 2 mM ATP, F-actin 0.125-4 mg/mL, 25 mM KCl, 4 mM MgCl2, pH 7.4, 25 C.

For a further test, the target named is T2, CbXI-2 MD (Chara braunii, UniProt A0A388M2Q8).
T2 construct: gene CBR_g48390; motor domain only, no IQ motifs; baculovirus / insect cells
T2 sequence (A0A388M2Q8 1-744 limits assumed): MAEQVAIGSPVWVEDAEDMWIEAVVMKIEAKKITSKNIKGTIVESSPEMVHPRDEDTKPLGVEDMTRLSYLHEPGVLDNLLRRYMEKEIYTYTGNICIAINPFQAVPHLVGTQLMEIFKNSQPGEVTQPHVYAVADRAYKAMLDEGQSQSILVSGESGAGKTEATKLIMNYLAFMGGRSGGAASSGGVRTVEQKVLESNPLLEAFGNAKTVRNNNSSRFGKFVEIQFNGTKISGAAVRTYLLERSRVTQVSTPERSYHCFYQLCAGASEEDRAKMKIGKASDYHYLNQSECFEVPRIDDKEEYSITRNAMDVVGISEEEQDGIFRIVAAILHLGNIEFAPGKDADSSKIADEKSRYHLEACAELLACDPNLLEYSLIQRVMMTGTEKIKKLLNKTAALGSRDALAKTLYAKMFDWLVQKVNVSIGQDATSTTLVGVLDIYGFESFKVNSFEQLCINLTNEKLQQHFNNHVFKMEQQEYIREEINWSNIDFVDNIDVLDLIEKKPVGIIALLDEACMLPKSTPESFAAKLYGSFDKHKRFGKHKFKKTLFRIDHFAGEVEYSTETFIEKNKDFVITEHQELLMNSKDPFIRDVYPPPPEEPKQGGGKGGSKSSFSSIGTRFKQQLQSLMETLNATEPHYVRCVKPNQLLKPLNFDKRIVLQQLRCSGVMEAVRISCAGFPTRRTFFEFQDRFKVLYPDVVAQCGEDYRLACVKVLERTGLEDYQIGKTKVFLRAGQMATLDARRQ
Briefly: actin-activated Mg2+-ATPase, phosphate release. The class given is biochemical. The note with it: 2 mM ATP, F-actin 0.125-4 mg/mL, 25 mM KCl, 4 mM MgCl2, pH 7.4, 25 C.

T1 sequence (A0A388L5N7 1-740 limits assumed): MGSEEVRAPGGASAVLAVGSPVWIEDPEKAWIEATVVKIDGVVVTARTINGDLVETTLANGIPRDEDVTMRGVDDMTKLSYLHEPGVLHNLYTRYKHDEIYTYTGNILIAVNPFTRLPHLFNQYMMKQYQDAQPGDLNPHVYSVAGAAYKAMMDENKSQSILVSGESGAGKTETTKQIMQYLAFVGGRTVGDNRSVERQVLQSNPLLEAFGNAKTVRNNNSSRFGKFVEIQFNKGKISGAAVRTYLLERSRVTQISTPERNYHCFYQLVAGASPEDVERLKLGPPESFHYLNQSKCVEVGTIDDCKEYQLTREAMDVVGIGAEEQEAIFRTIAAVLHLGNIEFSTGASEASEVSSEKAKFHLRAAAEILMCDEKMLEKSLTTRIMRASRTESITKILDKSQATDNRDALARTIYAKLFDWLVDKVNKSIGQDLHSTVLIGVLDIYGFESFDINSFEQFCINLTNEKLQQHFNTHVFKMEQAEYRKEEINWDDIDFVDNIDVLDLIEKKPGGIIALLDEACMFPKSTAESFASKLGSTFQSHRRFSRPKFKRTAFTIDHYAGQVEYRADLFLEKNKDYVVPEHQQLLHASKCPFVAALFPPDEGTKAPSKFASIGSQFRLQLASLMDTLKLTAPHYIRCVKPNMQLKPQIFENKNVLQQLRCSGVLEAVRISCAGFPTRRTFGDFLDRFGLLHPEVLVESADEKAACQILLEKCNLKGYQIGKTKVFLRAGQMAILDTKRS

Regarding `Nc1ncnc2c1ncn2[C@@H]1O[C@H](COP(=O)(O)OP(=O)(O)OP(=O)(O)O)[C@@H](O)[C@H]1O` [ATP], the “actin-activated Mg2+-ATPase, phosphate release” value is “The ATPase activities of CbXI-1, CbXI-2, CbXI-3, and CbXI-4 MDs were plotted” at CbXI-3 MD; “The ATPase activities of CbXI-1, CbXI-2, CbXI-3, and CbXI-4 MDs were plotted” on CbXI-2 MD.
